Patent publication US20240279602A1, “METHOD FOR PRODUCING CEREBRAL CORTICAL CELL PREPARATION DERIVED FROM HUMAN PLURIPOTENT STEM CELLS” (Kyoto University, priority 2021, published 2024)

Tests used:
cerebral organoids [1] = experiment: RT-qPCR of marker gene expression after DAPT treatment; format: cell-based, human; details: for expression of Hes1: single-cell DAPT method (step (iv))
Method: Total RNA was obtained with an RNeasyMicroKit (QIAGEN), and reverse transcription reaction was performed with a SuperScript III First-Strand Synthesis System ([…]) in accordance with a protocol from the provider. Quantitative PCR was carried out by using TaqMan (TM) Gene Expression Master Mix (Thermo Fisher Scientific Inc.) or SYBR Green Master Mix (Thermo Fisher Scientific Inc.) in accordance with instruction from the manufacturer. The expression levels of genes were normalized to that for GAPDH by using the […] method.
To analyze the influence of the DAPT treatment period on differentiation, cerebral organoids in week 7 of induction of differentiation were treated with 10 μM DAPT for 3 to 7 days according to a method or scheme shown in FIG. 16(A) (organoid DAPT method), and the variation of gene expression was analyzed by RT-qPCR; the results are shown in FIG. 16(B). The ordinate represents relative expression levels to GAPDH.
Furthermore, organoids on Day 25, Day 32, Day 39, and Day 72 (the periods of induction of differentiation: about 4 weeks, 5 weeks, 6 weeks, and 10 weeks, respectively) were cultured in the presence or absence of DAPT for 3 days, and the cerebral organoids on Day 28 (4 wk), Day 35 (5 wk), Day 42 (6 wk), and Day 75 (10 wk) were analyzed for the expression levels of marker genes by RT-qPCR; the results of analysis of the relative expression levels of the markers are shown in FIG. 18. […] For the organoids in week 10, no reduction in expression of Ki67 was found, and no influence was found in expression of Satb2, too.
In the “single-cell DAPT method (DAPT treatment is performed in step (iv))” in FIG. 24(B), cerebral organoids were screened on day 38 after the initiation of induction of differentiation and dispersed into single cells by the method described for step (iii) in Example 4, and the cells were then suspended in a culture medium obtained by adding 10 ng/mL GDNF, 20 ng/mL BDNF, 200 μM ascorbic acid, 400 μM dibutyryl-cAMP, and 30 μM Y-27632 to the culture medium in step (2b) with addition of DAPT at a concentration of 0 μM, 0.1 μM, 1 μM, or 10 μM. Subsequently, the cells were regathered by the method described for step (iv) in Example 4 in the presence of DAPT, and cultured for 1 day, 2 days, or 3 days. Thereafter, the culture medium was switched to a culture medium obtained by adding 10 ng/mL GDNF, 20 ng/mL BDNF, 200 μM ascorbic acid, and 400 μM dibutyryl-cAMP to the culture medium in step (2b), and culture was continued until day 10 after the initiation of reaggregation. The cells on day 3, day 4, or day 10 after the initiation of reaggregation were analyzed by RT-qPCR, and the cells on day 10 were analyzed by flow cytometry; the results are shown in FIGS. 25 to 27.

cerebral organoids [2] = experiment: Immunostaining of cell aggregates after DAPT treatment; format: cell-based, human
Method: Organoids were fixed with 4% paraformaldehyde for 30 minutes, subjected to dehydration reaction with 30% (w/v) sucrose in PBS, and embedded with O.C.T. compound (Sakura Finetek Japan Co., Ltd.). Frozen sections were prepared in a thickness of 16 μm by using a cryostat (CM1850, Leica Biosystems Nussloch GmbH). Permeabilization was performed with 0.3% or 2% (v/v) Triton-X100, and, as necessary, antigen retrieval reaction was performed. Blocking was performed with Block ACE (KAC Co., Ltd.), and double- or triple-label staining was then performed. Primary antibodies and secondary antibodies for use in immunostaining were diluted to recommended concentrations before use.
As illustrated by a scheme shown in FIG. 11(A), in step (ii), cerebral organoids were screened on day 33 after the initiation of induction of differentiation (Day 33), the culture medium was replaced with one obtained by adding 10 μM DAPT to the culture medium in step (2b), and suspension culture was performed at 37° C. under 5% CO2 for 3 days. As a result, cerebral cortical cell aggregates were obtained.
The cerebral cortical cell aggregates (Day 36) and high-purity cerebral cortical cell aggregates (Day 40) were further immunostained for the cortical layer V/VI progenitor cell (deep layer) marker Ctip2, the telencephalon marker Foxg1, the neural stem cell (radial glia) marker […], and the proliferative cell marker Ki67.
Organoids on Day 25, Day 32, Day 39, and Day 72 (the periods of induction of differentiation: about 4 weeks, 5 weeks, 6 weeks, and 10 weeks, respectively) were cultured in the presence or absence of DAPT for 3 days, and the organoids on Day 28 (4 wk), Day 42 (6 wk), and Day 75 (10 wk) were analyzed for different markers by immunostaining. […] Satb2 is a cortical layer II-IV progenitor cell (upper layer) marker.

[3] = cerebral organoids in week 7, 10 μM DAPT for 3 to 7 days (organoid DAPT method)
[4] = organoids in week 4 to week 6, DAPT for 3 days
[5] = organoids in week 10, DAPT for 3 days
[6] = organoids Day 33, 10 μM DAPT for 3 days, Day 36

With `C[C@H](NC(=O)Cc1cc(F)cc(F)c1)C(=O)N[C@H](C(=O)OC(C)(C)C)c1ccccc1` [DAPT, N-[N-(3,5-difluorophenacetyl)-L-alanyl]-S-phenylglycine t-butyl ester] the “expression of Ctip2” value (cerebral organoids [1]; [3]) was “enhanced as the DAPT treatment period was prolonged”, the “expressions of Pax6, Sox2, and Ki67” value (cerebral organoids [1]; [3]) was “declined as the DAPT treatment period was extended” and the “expression of Ctip2” value (cerebral organoids [1]; [4]) was “enhanced expression”. The “expression of Pax6 and Ki67” value (cerebral organoids [1]; [4]) was “reduced expression”, the “expression of Ki67” value (cerebral organoids [1]; [5]) was “no reduction” and the “expression of Satb2” value (cerebral organoids [1]; [5]) was “no influence”. The “expression of Hes1” value (cerebral organoids [1]; 10 μM DAPT, 1-day and 2-day treatment, as culture proceeded) was “upregulated again”, the “expression of Hes1” value (cerebral organoids [1]; 10 μM DAPT, 3-day treatment) was “suppressed over the 10 days” and the “expression of Hes1” value (cerebral organoids [1]; DAPT 0.1 to 1 μM, 3 days) was “not sufficiently suppressed”. For the same molecule, the “cerebral cortex-like layered structure (immunostaining)” value (cerebral organoids [2]; [6]) was “no cerebral cortex-like layered structure was found”, the “expression of Ki67 (immunostaining)” value (cerebral organoids [2]; [6]) was “almost no expression” and the “number of Ctip2/Bf1-co-positive cells” value (cerebral organoids [2]; [4]) was “increased number”. For the same molecule, the “number of Ki67-positive cells” value (cerebral organoids [2]; [4]) was “decreased number” and the “proportion of Ctip2-positive cells and that of Satb2-positive cells” value (cerebral organoids [2]; [5]) was “no significant change”.
